{"source": "patent US7217570B2", "about": "“Organotypic intestinal culture and methods of use thereof” (The Wistar Institute of Anatomy and Biology, priority 2001, dated 2007)", "key": {"[1]": {"tested_on": "colonic epithelial cells", "assay": "Coating of artificial stroma or plastic with extracellular matrix proteins (Example 3)", "type": "cell-based, human", "excerpt": "Another embodiment of an organotypic culture prepared as described substantially as in Example 2, has an additional component. An extracellular matrix was applied to the organotypic cultures by coating the artificial stroma with matrix proteins Laminin-2 […] (Life Technologies, Rockville, Md.), Laminin-1 […] (Sigma), or Matrigel® gel matrix (Collaborative Research, Bedford, Mass.), which contains Laminin-1 and other matrix proteins, such as collagen IV and […] (Burgeson, R E., et al. 1994 Matrix Biol., 14:209–211 and Page, KC. et al. 1990 J. Biol. Reprod., 43:659–664). Fifty to 100 μl of base medium containing 20 ng/ml of laminins were added onto the surface of the artificial stroma for 60 minutes at 37° C. Matrigel® matrix was diluted 1:5 to 1:10 in base medium before use. After incubation, unbound laminins or Matrigel® matrix were removed by two washings with base medium. The organotypic cultures were incubated at 37° C. in 5% CO2 in growth medium, which was changed daily for 7 days, then three times per week for an additional 21 days. Growth and differentiation of colonic epithelium in growth medium was regulated by ECM components at the interface between the stroma and the epithelial layer. These ECM experiments were done in base medium, supplemented with LIF, SCF, ET3, EGF, insulin, and 1% FCS. […]"}, "[2]": {"tested_on": "colorectal carcinoma cell line HT29", "assay": "Growth of carcinoma cell line on laminin substrates", "type": "cell-based", "conditions": "Laminin-2 compared to Laminin-1", "excerpt": "Quantitative analysis of the growth fractions confirmed that the different laminins control growth and differentiation. […] Enteric epithelial cells spread similarly on substrates of Laminins-2 and —I bound to plastic of culture dishes."}, "[3]": {"tested_on": "enteric epithelial cells", "assay": "Growth factor modulation of organotypic culture in reduced or modified media (Example 2)", "type": "cell-based, human", "conditions": "growth factor added individually to base medium (MCDB 201/L15, transferrin, antibiotics)", "method": "To determine the role of growth factors on proliferation of colonic epithelial cells, this growth medium was modified by changing combinations of growth factors and deleting serum. Keratinocyte growth factor (KGF, R&D Systems) at 20 ng/ml was also tested as part of 23 growth factor combinations. Total relative cell numbers of a specific type were counted as an average of all nuclei counts from a minimum of 3 randomly selected cross-sections of a reconstruct. Goblet cells were counted based on their typical morphology and positive Alcian staining in at least 3 randomly selected slides. Proliferation rates in % were established by counting the number of BrdU or Ki-67-positive nuclei per total epithelial cell nuclei of section. Apoptotic cells were counted in H&E-stained sections (Vagunda, V. et al. 2000 Anal. Quant. Cytol. Histol., 22:307–310). Apoptotic bodies and nuclei were determined according to the size and numbers of the fragments. Apoptosis was calculated as percentage of total nuclei per section (Kerr, J F. et al. 1972 Br. J. Cancer, 26:239–257) To define the role of critical growth factors supporting growth and differentiation of the enteric epithelial cells, an organotypic culture, such as that described in Example 1, was grown in medium in which the number of supplements was reduced. In other experiments, the growth factors, including insulin, EGF, SCF, ET-3, KGF, bFGF, or AMF were added individually to the base medium (MCDB 201/L15 medium with transferrin and antibiotics). In each case, epithelial cell proliferation was not supported in the organotypic culture. In another experiment, the organotypic cultures were prepared by seeding epithelial cells on the artificial stroma in complete medium C or medium L/S/E or medium L. Medium C contained transferrin, insulin, bFGF, EGF, ET-3, HGF, LIF, SCF, AMF, and 1% FCS as supplements. L/S/E medium contained transferrin, insulin, LIF, SCF, ET-3, EGF, and 1% FCS. L medium contained transferrin, insulin, LIF, EGF, and 1% FCS. Sections of the cultures were stained with H&E and Alcian blue after 12 hours (day 0) and 4 days. Values were generated SD of 5 fields from 2 independent experiments. […] The L/S/E-supplemented base medium (LIF, SCF, ET-3, EGF, insulin, and 1% FCS) induced formation by day 4 of highly disorganized structures of stratified and pseudostratified epithelial cells. The epithelium was hyperplastic with morphological atypia. In contrast to results obtained with complete growth medium, only the upper surface rather than the entire artificial stroma was covered with epithelium."}, "[4]": {"tested_on": "colonic epithelial cells", "assay": "Proliferation of organotypic colon cultures in LIF-supplemented base medium (BrdU, 3H-thymidine, cell numbers per area)", "type": "cell-based, human", "method": "Colonic epithelial cells described above were seeded on top of collagen gels containing embedded fibroblasts described above in 0.4 ml of complete growth medium. After seeding onto the matrix of collagen type I with embedded fibroblasts, samples were incubated at 37° C. in 5% CO2 for 60–90 minutes in a low volume of medium (50–100 μl) to enhance attachment. The epithelial cells and clusters attached within 60 minutes. The wells were then filled with complete growth medium. Medium was changed daily for 10 days, then three times per week for an additional 21 days.\nProliferation of organotypic cultures was determined by adding bromodeoxyuridine (BrdU) to the medium according to the manufacturer's instructions (Amersham Pharmacia Biotech, Inc., Piscataway, N.J.). Thymidine incorporation was measured in cells, incubated with 1 μCi ^3H-thymidine/well for 18 hours before harvest and determination of radioactivity.\n(§1) Cell numbers were determined per high-power field (0.11×0.18 mm) using 40× magnification as the mean (±SD) of 364 measurements. Constriction of collagen matrices was measured as the length of the longitudinal axis of collagen harvested on days 0.5, 4 and 10 (mean±SD of 32 measurements of 4 samples. Positive cells per area were counted in 12 consecutive fields per cross-section (mean±SD of 16 areas of 2 random cross-sections from 4 samples. Relative number of positive cells per area was expressed as mean±SD of positive/total cells from 16 areas of 2 random cross-sections for each sample. Statistical significance was tested using Student's t-test."}, "[5]": {"tested_on": "colonic epithelial cells", "assay": "Differentiated cells (goblet, enteroendocrine, carbonic anhydrase II) in organotypic colon cultures with LIF", "type": "cell-based, human", "excerpt": "The organotypic cultures were characterized as follows. Harvested organotypic cultures were fixed in 1.5% paraformaldehyde and embedded in paraffin. For electron microscopy (EM), cultures were fixed in 4% glutaraldehyde. For histochemistry and immunohistochemistry, 5-μm thick sections were cut from the paraffin beds and stained with hematoxylin and eosin (H&E) or Alcian Blue using standard procedures.\nGoblet cells were detected using Alcian Blue and EM. Enteroendocrine cells were identified by chromogranin A staining and EM. Immunohistochemical staining was done with monoclonal antibodies specific for: BrdU (Amersham), Ki67 (DAKO, Carpinteria, Calif.), α-smooth muscle actin (SMA) (Sigma), cytokeratin 19 (CK 19; antibody BA17 [33] kindly provided by Dr. J. Kovarik, Brno, Czech Rep.), chromogranin A (Novocastra, New Castle Upon Tyne, UK) and carbonic anhydrase II (The Binding Site Limited, Birmingham, UK). Immunohistochemistry was performed by standard techniques as described (Dai, C. Y. et al, 2000 Gastroenterology, 119, 929–942). Alkaline phosphatase activity of paraffin-embedded samples was detected using colorimetric substrate (AP Substrate Kit, SK 15100, Vector, Burlingame, Calif.).\nas §1"}, "[6]": {"tested_on": "fibroblasts", "assay": "Constriction of collagen matrix by embedded fibroblasts and fibroblast numbers", "type": "cell-based, human", "method": "Human smooth muscle cells HIAS119, kindly provided by Dr. E. Levine, The Wistar Institute, were isolated from large blood vessels and maintained in medium M199, supplemented with 10% FCS, 2 mM L-glutamine, and 50 μg/ml bovine hypothalamus extract (Oda, D. et al, 1998 In Vitro Cell. Dev. Biol. Anim., 34, 46–52). Fibroblasts at 8×10^5/ml were embedded in collagen type I (Organogenesis, Canton, Mass.) to a final concentration of 0.9 to 1.1 mg/ml in DMEM supplemented with 50 μM vitamin C (Sigma), 1.66 mM L-glutamine (GIBCO-BRL), and 1% FCS. The suspension was neutralized, pH 7.2, using 7.5% sodium bicarbonate. Chambered slides, Lab-Tek 8 wells (Nunc International, Rochester, N.Y.), were filled with 0.2 ml of the collagen and cell suspension. […]\nas §1"}}, "note": "“Also recorded” adds a separate entry of the source. Where no end group is shown, it is not given here.", "data": [{"substance": "Laminin-2: matrix protein Laminin-2 α2β1γ1 (Life Technologies)", "values": [{"measurement": "control of growth and differentiation of colonic epithelium", "setting": "[1]; coating of artificial stroma, quantitative analysis of growth fractions", "result": "stimulated cell growth"}, {"measurement": "survival of epithelial cells by day 5", "setting": "[1]; laminin bound to plastic of culture dishes", "result": "survived only with Laminin-2"}, {"measurement": "growth of HT29 cells", "setting": "[2]", "result": "better growth"}]}, {"substance": "autocrine motility factor [AMF]", "values": [{"measurement": "epithelial cell proliferation", "setting": "[3]", "result": "not supported"}]}, {"substance": "basic fibroblast growth factor [bFGF]", "values": [{"measurement": "epithelial cell proliferation", "setting": "[3]", "result": "not supported"}]}, {"substance": "endothelin-3 (CTCFTYKDKECVYYCHLDIIW; ends and bridges not checked; cysteine pairing not given here; UniProt P14138 97-117, looked up) [ET-3, endothelin-3 (Peninsula Labs)]", "values": [{"measurement": "epithelial cell proliferation", "setting": "[3]", "result": "not supported"}]}, {"substance": "insulin", "values": [{"measurement": "epithelial cell proliferation", "setting": "[3]", "result": "not supported"}]}, {"substance": "leukemia inhibitory factor [LIF]", "values": [{"measurement": "3H-thymidine incorporation", "setting": "[4]; BM+LIF compared with BM only, after 2 days", "result": "Significant stimulation"}, {"measurement": "Growth of epithelial cells", "setting": "[4]; LIF added to base medium, organotypic culture", "result": "significantly stimulated"}, {"measurement": "number of colonic epithelial cells", "setting": "[4]; LIF-containing base medium versus base medium", "result": "significantly higher"}, {"measurement": "numbers of BrdU-positive and total epithelial cells", "setting": "[4]; LIF-stimulated cultures", "result": "significantly higher"}, {"measurement": "expression of differentiation marker carbonic anhydrase II", "setting": "[5]; LIF only added to base medium", "result": "did not express"}, {"measurement": "percentage of goblet cells among total cells and per area", "setting": "[5]; LIF, FIG. 3A", "result": "lack of stimulation"}, {"measurement": "relative numbers of goblet cells (of all enterocytes)", "setting": "[5]; LIF-cultured, p=0.81 versus control base medium", "result": "3.8±3.5", "unit": "%"}, {"measurement": "numbers of goblet cells per area", "setting": "[5]; LIF-stimulated samples, p=0.13 versus samples without LIF", "result": "2.25±1.66"}, {"measurement": "relative numbers of enteroendocrine cells", "setting": "[5]; in the presence of LIF", "result": "significantly decreased; also recorded: decrease"}, {"measurement": "collagen constriction by fibroblasts", "setting": "[6]; LIF in base medium", "result": "did not change"}, {"measurement": "fibroblast numbers", "setting": "[6]; LIF-stimulated cultures versus control", "result": "no differences"}]}, {"substance": "stem cell factor [SCF]", "values": [{"measurement": "epithelial cell proliferation", "setting": "[3]", "result": "not supported"}]}]}
